The record followed here is USRE43712E1, “Methods for assaying for antidepressant therapy markers” (The Board of Trustees of the Uniersity of Illinois, priority 2000, dated 2012).

Each structure is given as a SMILES string.

This assay has as its system Goα. Nature of the assay: Cellular localization of Goα in C6-2B cells, immunofluorescence confocal microscopy. In kind it is cell-based. As to conditions: 10 μM desipramine 3 days, approximately 500 cells, FIG. 9. How it is done:
C6-2B cells (between passages 30 and 50) were plated onto coverslips and allowed to attach overnight in Dulbecco's modified Eagle's medium. 4.5 g/l glucose, 10% bovine serum, and 100 μg/ml penicillin and streptomycin at 37° C. in a humidified 10% CO2 atmosphere. […] Therefore, the latter treatment paradigm was used in these experiments because it was easier to maintain the cell cultures for 3 days. […] The culture media and drug were changed daily. […] After the treatment duration, the cells were incubated in drug-free media for 45 to 60 minutes before fixation.
After treatment, cells were washed once with phosphate-buffered saline (PBS, […] NaCl, 2.6 mM KCl, 5.4 mM NaαPO4 7H2O, pH 7.4) and fixed with ice-cold methanol for 10 minutes. Cells were then washed three times with PBS followed by 2 h of blocking in 5% normal goat serum/0.2% fish skin gelatin in PBS. Primary antibody was added for 1.5 h, Gsα/RM1 (PerkinElmer Life Sciences, Boston, Mass.) 1:50 and Goα (Santa Cruz Biotechnology, Santa Cruz, Calif.) 2 μg/ml, followed by three washes with PBS. Oregon Green-labeled secondary antibody (Molecular Probes, Eugene, Oreg.) was added at a concentration of 8 μg/ml for 1 h followed by three PBS washes. […] Approximately 2100 cells from control and desipramine-treated coverslips were counted by two investigators blind to the experimental conditions over the course of the five experiments. […]

Turning to `CNCCCN1c2ccccc2CCc2ccccc21` [Desipramine, desipramine], the “Change in the distribution of Goα” value is given as “little if any change”.
